Test results published in ChEMBL document CHEMBL1201862, “PubChem BioAssay data set” (2004).
The source made the active and inactive calls.

Assays:
Caspase-8 = Caspase-8 (Homo sapiens, UniProt Q14790); test: caspase-8 inhibition counter-screen, dose response, selectivity assay for caspase-6 inhibitor project, biochemical, Z-IETD-R110 fluorescence, cherry-picked samples (AID 743294)
[1] = biological target: Mitochondrial peptide methionine sulfoxide reductase (Bos taurus, UniProt P54149); test: Absorbance-based biochemical high throughput dose response assay for activators of Methionine sulfoxide reductase A (MsrA).; type: functional
Protein RecA = biological target: T1, Protein RecA (Mycobacterium tuberculosis, UniProt P9WHJ3); test: Fluorescence Cell-Free Homogeneous Dose Retest to Identify Inhibitors of RecA-Intein Splicing Activity. [Related pubchem assays (depositor defined):AID2097, AID2223, AID489010, AID492950]; type: functional
T1 sequence (P9WHJ3 whole entry): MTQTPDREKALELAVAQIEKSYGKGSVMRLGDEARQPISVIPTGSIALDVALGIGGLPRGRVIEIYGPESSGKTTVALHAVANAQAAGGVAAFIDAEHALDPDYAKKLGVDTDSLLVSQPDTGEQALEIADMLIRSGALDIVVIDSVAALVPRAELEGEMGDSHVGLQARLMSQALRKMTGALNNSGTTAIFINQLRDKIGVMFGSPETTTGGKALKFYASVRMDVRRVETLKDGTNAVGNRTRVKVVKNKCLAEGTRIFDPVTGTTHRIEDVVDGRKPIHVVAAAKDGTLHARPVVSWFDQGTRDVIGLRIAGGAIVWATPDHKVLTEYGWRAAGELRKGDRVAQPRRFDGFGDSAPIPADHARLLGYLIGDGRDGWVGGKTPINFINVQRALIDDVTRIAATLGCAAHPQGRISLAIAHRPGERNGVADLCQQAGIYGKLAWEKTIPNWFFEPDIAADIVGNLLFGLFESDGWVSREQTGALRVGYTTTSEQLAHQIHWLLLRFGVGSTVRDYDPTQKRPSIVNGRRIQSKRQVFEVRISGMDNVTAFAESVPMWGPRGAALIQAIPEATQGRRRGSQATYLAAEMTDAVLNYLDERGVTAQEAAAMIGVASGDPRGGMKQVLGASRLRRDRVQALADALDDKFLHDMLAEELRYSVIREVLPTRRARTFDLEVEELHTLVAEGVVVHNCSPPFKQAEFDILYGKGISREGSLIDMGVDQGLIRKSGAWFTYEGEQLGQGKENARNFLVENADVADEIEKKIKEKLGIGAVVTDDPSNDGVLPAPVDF

Caspase-3 = biological target: T2, Caspase-3 (Homo sapiens, UniProt P42574); test: SAR Analysis of small molecule inhibitors of Sentrin-specific proteases (SENPs) using a Caspase-3 Selectivity assay. [Related pubchem assays (depositor defined):AID2540, AID2599, AID434973, AID489001]; type: functional
T2 sequence (P42574 whole entry): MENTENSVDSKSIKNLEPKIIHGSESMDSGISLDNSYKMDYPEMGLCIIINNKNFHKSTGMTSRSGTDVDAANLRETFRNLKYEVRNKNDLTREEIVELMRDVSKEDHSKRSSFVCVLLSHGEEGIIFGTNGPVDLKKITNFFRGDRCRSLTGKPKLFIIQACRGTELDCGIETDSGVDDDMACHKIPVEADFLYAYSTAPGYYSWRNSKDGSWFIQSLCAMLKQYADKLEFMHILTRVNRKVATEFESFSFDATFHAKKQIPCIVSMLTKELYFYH

[2] = biological target: Homeodomain-interacting protein kinase 2 (Homo sapiens, UniProt Q9H2X6); type: functional;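 also: measured within a kinome-wide kinase profiling panel, HIPK2 being one panel member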
Sequence of Homeodomain-interacting protein kinase 2 (Q9H2X6 whole entry): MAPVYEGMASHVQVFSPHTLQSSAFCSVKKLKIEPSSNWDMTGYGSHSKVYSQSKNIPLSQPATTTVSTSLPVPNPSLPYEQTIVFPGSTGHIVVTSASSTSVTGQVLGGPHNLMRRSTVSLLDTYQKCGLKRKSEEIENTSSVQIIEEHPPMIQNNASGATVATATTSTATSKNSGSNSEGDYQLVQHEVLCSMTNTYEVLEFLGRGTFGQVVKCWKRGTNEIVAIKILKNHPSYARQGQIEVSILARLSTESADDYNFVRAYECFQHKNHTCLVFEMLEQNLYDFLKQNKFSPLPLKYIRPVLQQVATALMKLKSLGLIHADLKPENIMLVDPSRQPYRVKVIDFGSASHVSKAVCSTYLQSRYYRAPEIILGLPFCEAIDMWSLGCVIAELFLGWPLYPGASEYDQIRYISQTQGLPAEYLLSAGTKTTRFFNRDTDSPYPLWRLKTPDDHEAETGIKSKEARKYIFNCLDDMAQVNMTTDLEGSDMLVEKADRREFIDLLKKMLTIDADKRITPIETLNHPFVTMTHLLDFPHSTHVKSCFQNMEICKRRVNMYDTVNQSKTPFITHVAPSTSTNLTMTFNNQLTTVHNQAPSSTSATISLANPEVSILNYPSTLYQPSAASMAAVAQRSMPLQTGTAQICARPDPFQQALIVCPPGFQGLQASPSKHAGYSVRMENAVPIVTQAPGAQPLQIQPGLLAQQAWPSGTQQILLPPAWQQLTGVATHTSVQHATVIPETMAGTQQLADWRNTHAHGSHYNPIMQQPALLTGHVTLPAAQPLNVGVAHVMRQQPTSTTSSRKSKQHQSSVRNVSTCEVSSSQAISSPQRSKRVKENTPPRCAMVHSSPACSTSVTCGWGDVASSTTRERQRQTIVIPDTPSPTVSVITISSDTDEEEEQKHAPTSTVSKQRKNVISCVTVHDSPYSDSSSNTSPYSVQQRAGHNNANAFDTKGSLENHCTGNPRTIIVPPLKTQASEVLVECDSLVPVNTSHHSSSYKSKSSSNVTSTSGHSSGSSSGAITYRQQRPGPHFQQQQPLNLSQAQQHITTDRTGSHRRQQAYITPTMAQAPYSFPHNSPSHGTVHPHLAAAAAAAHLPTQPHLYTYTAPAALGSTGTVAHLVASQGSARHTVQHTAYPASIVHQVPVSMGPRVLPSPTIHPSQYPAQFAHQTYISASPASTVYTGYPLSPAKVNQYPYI

[3] = biological target: Serine/threonine-protein kinase TAO1 (Homo sapiens, UniProt Q7L7X3); type: functional
[4] = biological target: Non-receptor tyrosine-protein kinase TYK2 (Homo sapiens, UniProt P29597); type: functional
[5] = biological target: 3-phosphoinositide-dependent protein kinase 1 (Homo sapiens, UniProt O15530); type: functional;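 also: value comes from the Navigating the Kinome panel, PDPK1 member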
[6] = biological target: STE20-like serine/threonine-protein kinase (Homo sapiens, UniProt Q9H2G2); type: functional
[7] = biological target: Serine/threonine-protein kinase Nek2 (Homo sapiens, UniProt P51955); type: functional
Sequence of Serine/threonine-protein kinase Nek2 (P51955 whole entry): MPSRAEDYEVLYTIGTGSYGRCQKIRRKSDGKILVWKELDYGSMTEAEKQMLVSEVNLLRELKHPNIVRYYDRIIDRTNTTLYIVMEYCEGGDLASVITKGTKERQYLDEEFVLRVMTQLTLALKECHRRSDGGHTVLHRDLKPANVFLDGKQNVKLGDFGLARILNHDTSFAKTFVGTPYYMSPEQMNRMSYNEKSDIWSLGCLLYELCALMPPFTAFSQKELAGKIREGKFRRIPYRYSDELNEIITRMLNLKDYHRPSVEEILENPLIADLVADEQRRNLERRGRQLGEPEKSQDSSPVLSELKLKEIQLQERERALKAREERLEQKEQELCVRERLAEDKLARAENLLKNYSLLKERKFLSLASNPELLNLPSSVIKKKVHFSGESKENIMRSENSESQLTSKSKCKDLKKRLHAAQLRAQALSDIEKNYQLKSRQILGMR

[8] = biological target: Calcium/calmodulin-dependent protein kinase type 1 (Homo sapiens, UniProt Q14012); type: functional
Sequence of Calcium/calmodulin-dependent protein kinase type 1 (Q14012 whole entry): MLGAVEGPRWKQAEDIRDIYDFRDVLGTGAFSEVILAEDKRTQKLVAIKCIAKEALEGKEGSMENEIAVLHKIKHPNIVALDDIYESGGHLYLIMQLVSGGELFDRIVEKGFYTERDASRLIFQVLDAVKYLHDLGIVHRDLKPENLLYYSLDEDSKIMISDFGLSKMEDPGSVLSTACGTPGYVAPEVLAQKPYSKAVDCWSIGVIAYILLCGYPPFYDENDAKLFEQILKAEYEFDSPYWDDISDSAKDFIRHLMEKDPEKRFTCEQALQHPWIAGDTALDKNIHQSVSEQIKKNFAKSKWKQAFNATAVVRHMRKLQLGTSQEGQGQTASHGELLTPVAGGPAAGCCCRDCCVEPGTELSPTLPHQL

[9] = biological target: Mitogen-activated protein kinase 1 (Homo sapiens, UniProt P28482); type: functional
[10] = biological target: Casein kinase I isoform gamma-1 (Homo sapiens, UniProt Q9HCP0); type: functional;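 also: measured as the CSNK1G1 member of a kinome profiling panel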
Sequence of Casein kinase I isoform gamma-1 (Q9HCP0 whole entry, canonical isoform): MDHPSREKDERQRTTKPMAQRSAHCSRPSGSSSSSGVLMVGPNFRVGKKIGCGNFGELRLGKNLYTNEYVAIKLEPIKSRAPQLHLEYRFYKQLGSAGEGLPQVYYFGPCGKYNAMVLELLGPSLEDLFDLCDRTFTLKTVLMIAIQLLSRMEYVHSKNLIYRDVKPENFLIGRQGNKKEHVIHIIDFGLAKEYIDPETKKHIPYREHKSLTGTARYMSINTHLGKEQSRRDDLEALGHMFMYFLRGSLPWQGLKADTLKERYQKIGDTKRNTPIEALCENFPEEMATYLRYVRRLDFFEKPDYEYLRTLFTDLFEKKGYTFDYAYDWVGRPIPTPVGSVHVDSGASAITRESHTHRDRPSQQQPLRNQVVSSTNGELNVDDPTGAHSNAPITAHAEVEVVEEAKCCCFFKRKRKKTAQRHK

[11] = biological target: Lymphokine-activated killer T-cell-originated protein kinase (Homo sapiens, UniProt Q96KB5); type: functional;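 also: value comes from a kinase panel screen in which TOPK was one of the panel members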
[12] = biological target: Tyrosine-protein kinase FRK (Homo sapiens, UniProt P42685); type: functional;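 also: FRK tested as one member of a kinome panel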
[13] = biological target: Serine/threonine-protein kinase 17A (Homo sapiens, UniProt Q9UEE5); type: functional
Sequence of Serine/threonine-protein kinase 17A (Q9UEE5 whole entry): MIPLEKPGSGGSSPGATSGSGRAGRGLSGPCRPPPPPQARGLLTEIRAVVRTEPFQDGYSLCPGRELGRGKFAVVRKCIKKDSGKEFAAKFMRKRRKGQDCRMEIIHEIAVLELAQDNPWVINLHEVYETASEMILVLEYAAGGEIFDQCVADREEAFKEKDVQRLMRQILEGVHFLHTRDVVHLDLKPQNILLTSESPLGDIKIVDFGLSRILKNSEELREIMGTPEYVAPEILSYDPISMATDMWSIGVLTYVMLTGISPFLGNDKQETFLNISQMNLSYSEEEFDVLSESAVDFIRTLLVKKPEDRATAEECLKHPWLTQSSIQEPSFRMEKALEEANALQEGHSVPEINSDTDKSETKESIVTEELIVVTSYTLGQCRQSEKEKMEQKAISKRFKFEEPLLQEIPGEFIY

[14] = biological target: Mitogen-activated protein kinase kinase kinase 20 (Homo sapiens, UniProt Q9NYL2); type: functional
[15] = biological target: Casein kinase II subunit alpha (Homo sapiens, UniProt P68400); type: functional
Sequence of Casein kinase II subunit alpha (P68400 whole entry): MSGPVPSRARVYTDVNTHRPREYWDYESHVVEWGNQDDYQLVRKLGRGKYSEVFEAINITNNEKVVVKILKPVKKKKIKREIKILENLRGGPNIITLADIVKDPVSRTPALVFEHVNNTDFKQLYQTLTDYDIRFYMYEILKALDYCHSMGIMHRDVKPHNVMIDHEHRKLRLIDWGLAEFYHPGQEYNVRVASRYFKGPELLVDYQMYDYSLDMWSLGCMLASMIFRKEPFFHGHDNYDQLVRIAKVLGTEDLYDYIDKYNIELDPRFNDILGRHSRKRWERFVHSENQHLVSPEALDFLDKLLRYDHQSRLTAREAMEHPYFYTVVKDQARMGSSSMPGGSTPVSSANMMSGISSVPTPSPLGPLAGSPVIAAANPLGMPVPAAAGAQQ

[16] = biological target: Insulin-like growth factor 1 receptor (Homo sapiens, UniProt P08069); test: Navigating the Kinome. Panel member name: IGF1R; type: functional
Sequence of Insulin-like growth factor 1 receptor (P08069 31-736 limits assumed): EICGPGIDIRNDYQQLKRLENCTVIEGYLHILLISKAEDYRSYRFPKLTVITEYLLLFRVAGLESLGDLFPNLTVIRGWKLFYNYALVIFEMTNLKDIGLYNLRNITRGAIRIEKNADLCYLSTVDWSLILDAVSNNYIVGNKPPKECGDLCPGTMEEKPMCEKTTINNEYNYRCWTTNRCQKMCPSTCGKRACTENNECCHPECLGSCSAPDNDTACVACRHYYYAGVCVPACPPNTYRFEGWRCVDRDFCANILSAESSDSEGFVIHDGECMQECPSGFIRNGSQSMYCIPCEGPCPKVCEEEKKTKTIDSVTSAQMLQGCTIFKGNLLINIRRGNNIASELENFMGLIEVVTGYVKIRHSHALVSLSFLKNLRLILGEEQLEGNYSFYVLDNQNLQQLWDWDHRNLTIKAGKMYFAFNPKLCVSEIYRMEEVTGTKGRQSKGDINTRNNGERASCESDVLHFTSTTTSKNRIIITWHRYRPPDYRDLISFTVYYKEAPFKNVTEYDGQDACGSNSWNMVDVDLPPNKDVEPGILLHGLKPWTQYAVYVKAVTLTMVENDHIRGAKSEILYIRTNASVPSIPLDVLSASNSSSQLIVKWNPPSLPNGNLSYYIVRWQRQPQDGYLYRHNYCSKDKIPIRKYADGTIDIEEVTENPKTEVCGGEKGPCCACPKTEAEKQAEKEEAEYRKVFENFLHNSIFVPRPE
Sequence of Insulin-like growth factor 1 receptor (P08069 741-1367 limits assumed): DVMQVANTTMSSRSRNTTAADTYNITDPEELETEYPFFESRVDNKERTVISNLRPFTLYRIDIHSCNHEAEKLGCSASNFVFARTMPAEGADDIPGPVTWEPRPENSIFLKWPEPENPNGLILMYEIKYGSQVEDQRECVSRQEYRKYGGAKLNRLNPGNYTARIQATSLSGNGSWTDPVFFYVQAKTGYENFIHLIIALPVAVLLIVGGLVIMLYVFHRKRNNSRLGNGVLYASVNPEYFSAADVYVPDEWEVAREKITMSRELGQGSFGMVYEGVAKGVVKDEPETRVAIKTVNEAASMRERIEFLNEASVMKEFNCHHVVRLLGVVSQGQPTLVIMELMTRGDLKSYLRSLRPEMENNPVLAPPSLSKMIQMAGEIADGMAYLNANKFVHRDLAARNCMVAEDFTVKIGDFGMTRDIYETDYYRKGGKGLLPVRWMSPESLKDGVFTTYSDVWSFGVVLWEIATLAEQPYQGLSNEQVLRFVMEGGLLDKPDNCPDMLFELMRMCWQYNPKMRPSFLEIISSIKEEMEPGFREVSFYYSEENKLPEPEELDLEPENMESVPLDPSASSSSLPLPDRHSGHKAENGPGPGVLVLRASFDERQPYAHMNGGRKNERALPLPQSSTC

Sequence of Caspase-8 (Q14790 217-374 limits assumed): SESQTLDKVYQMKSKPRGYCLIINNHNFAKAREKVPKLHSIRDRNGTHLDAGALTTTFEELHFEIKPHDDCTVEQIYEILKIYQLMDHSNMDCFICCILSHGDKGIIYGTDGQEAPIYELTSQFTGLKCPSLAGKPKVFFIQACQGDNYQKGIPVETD
Sequence of Caspase-8 (Q14790 385-479 limits assumed): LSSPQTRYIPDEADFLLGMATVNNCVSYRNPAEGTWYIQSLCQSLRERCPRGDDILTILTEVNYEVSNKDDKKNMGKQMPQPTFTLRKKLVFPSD

## O=C(COC(=O)c1ccc([N+](=O)[O-])s1)Nc1cccc(S(=O)(=O)/N=C2/CCCCCN2)c1
Caspase-8
  AC50: 21200 nM (active)
[1]
  EC50: 70400 nM (inactive)

## COc1ccc(C(C[N+](=O)[O-])c2c(C)[nH]n(-c3ccccc3)c2=O)cc1 (centres undefined)
Protein RecA
  EC50: 3300 nM (active)
Caspase-3
  IC50: 45500 nM (active)

## Oc1c2ccccc2c2c3c(cccc13)N=N2 [SP-600125]
[2]
  Ki: 200 nM (active)
[3]
  Ki: 5010 nM (active)
[4]
  Ki: 1260 nM (active)
[5]
  Ki: 631 nM (active)
[6]
  Ki: 3160 nM (active)
[7]
  Ki: 6310 nM (active)
[8]
  Ki: > 1580 nM (inactive)
[9]
  Ki: 5010 nM (active)
[10]
  Ki: > 6310 nM (inactive)
[11]
  Ki: 1000 nM (active)
[12]
  Ki: 63.1 nM (active)
[13]
  Ki: 39.8 nM (active)
[14]
  Ki: 501 nM (active)
[15]
  Ki: 501 nM (active)
[16]
  Ki: > 2000 nM (inactive)
